Measured values published in the Kinase Knowledgebase extract (Sharma et al. 2016).

Target: PIK3CA (human) (UniProt P42336)
Experiment: Assessment of PIK3CA Kinase Activity

Sequence of PIK3CA (human) (P42336 whole entry, looked up): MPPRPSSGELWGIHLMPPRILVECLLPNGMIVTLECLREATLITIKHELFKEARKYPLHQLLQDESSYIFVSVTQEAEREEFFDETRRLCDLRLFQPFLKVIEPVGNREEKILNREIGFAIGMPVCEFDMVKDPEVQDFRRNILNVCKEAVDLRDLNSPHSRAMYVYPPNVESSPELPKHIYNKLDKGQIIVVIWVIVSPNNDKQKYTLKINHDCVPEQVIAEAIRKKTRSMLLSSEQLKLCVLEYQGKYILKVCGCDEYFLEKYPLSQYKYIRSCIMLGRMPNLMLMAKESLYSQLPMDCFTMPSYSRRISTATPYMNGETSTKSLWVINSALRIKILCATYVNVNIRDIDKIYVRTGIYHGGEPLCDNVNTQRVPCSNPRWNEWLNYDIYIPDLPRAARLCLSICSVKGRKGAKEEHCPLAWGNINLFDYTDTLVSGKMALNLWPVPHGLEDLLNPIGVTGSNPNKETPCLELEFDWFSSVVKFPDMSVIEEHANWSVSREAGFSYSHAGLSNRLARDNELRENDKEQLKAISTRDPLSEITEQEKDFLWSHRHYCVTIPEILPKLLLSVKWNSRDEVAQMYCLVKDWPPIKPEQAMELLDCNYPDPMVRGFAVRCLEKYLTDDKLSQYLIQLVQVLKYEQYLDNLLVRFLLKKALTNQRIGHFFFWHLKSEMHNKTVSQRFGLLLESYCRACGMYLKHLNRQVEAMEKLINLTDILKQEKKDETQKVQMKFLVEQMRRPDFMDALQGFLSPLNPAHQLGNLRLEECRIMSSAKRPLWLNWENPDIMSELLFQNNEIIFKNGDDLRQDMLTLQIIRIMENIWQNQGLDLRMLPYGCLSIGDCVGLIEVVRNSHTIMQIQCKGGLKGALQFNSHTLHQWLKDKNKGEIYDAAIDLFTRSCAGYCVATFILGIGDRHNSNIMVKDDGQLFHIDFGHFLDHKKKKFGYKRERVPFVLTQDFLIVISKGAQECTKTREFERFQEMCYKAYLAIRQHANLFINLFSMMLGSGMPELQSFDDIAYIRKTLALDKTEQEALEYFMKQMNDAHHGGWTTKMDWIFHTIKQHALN

Compound | IC50 [nM]
Cc1nc(-c2cn3c(n2)-c2ccc(OC(C)C)cc2OCC3)n(C(C)C)n1 | < 1000
Cc1nc(-c2cn3c(n2)-c2ccc(N4CCC[C@H]4C(N)=O)cc2OCC3)n(CC(F)(F)F)n1 | < 1000
CC(CO)Nc1cc2c(cn1)-c1nc(-c3ncnn3CC(F)(F)F)cn1CCO2 (stereo not given) | < 1000
CC(C)n1ncnc1-c1cn2c(n1)-c1ccc(C3CCN(CC(F)(F)F)CC3)cc1OCC2 | < 1000
CC(C)n1ncnc1-c1cn2c(n1)-c1cnc(N3CCC(CO)CC3)cc1OCC2 | < 1000
CC(C)n1ncnc1-c1cn2c(n1)-c1ccc(C3CN(CC(=O)N(C)C)C3)cc1OCC2 | < 1000
CC(C)n1ncnc1-c1cn2c(n1)-c1cnc(OC(C)(C)C(N)=O)cc1OCC2 | < 1000
NC(=O)CNc1cc2c(cn1)-c1nc(-c3ncnn3CC(F)(F)F)cn1CCO2 | < 1000
CO[C@H]1CCN(c2cc3c(cn2)-c2nc(-c4ncnn4C(C)C)cn2CCO3)[C@@H]1C(N)=O | < 1000
CNC(=O)CN1CCC(c2ccc3c(c2)OCCn2cc(-c4nc(C)nn4C(C)C)nc2-3)CC1 | < 1000
CC(C)n1nc(CN(C)C)nc1-c1cn2c(n1)-c1ccccc1OCC2 | < 1000
Cc1nc(-c2cn3c(n2)-c2cnc(NCC(N)=O)cc2OCC3)n(CC(F)(F)F)n1 | < 1000
NC(=O)[C@@H]1CCCN1c1ccc2c(c1)OCCn1cc(-c3ncnn3CC(F)(F)F)nc1-2 | < 1000
CC(C)n1ncnc1-c1cn2c(n1)-c1cc(C(=O)N3CCS(=O)(=O)CC3)ccc1OCC2 | < 1000
Cc1nc(-c2cn3c(n2)-c2cc(-c4cnn(C)c4)ccc2OCC3)n(C(C)C)n1 | < 1000
Cc1nc(-c2cn3c(n2)-c2cnc(NCC(N)=O)cc2OCC3)n(C(C)C)n1 | < 1000
CC(C)n1ncnc1-c1cn2c(n1)-c1ccc(Br)cc1OCC2 | < 1000
CC(C)n1ncnc1-c1cn2c(n1)-c1cnccc1OCC2 | < 1000
CNC(=O)Cn1ccnc1-c1cn2c(n1)-c1ccc(-c3cnn(CC(C)(C)O)c3)cc1OCC2 | < 1000
CNC(=O)c1ccc2c(c1)OCCn1cc(-c3ncnn3-c3ccc(F)cc3F)nc1-2 | < 1000

Compound | IC50 [nM]
CC(C)(CO)NC(=O)c1ccc2c(c1)-c1nc(-c3ncnn3-c3ccc(F)cc3F)cn1CCO2 | < 1000
CC(C)n1ncnc1-c1cc2n(n1)-c1cc(C(=O)Nc3cnn(CCO)c3)ccc1OCC2 | < 1000
CC(C)n1ncnc1-c1cc2n(n1)-c1cc(C3CN(C(=O)CO)C3)ccc1OCC2 | < 1000
COC(=O)c1ccc2c(c1)OCCn1cc(-c3ccccc3C(C)C)nc1-2 | < 1000
OCCN1CCN(Cc2ccc3c(c2)-n2nc(-c4ncnn4CC(F)(F)F)cc2CCO3)CC1 | < 1000
CC(C)n1ccnc1-c1cn2c(n1)-c1cnccc1OCC2 | < 1000
C[C@@H](Oc1ccc2c(c1)OCCn1cc(-c3ncnn3CC(F)(F)F)nc1-2)C(N)=O | < 1000
CC(C)N(CCO)C(=O)c1cn2c(n1)-c1ccc(C3CCN(CC(=O)N(C)C)CC3)cc1OCC2 | < 1000
Cc1nc(-c2cn3c(n2)-c2ccc(-c4cn(CCO)cn4)cc2OCC3)n(C(C)C)n1 | < 1000
CC(C)n1ncnc1-c1cn2c(n1)-c1ccc(OC3CC3)cc1OCC2 | < 1000
O=C(CO)N1CCC(c2ccc3c(c2)-n2nc(-c4ncnn4CC(F)(F)F)cc2CCO3)CC1 | < 1000
CC(C)n1ncnc1-c1cn2c(n1)-c1cnc(N3CCC(O)CC3)cc1OCC2 | < 1000
CC(C)n1ncnc1-c1cn2c(n1)-c1ccncc1OCC2 | < 1000
CC(Sc1ccc2c(c1)OCCn1cc(-c3ncnn3C(C)C)nc1-2)C(N)=O (stereo not given) | < 1000
CC(C)n1nccc1-c1cn2c(n1)-c1ccc(CN)cc1OCC2 | < 1000
CCOc1ccccc1-c1cn2c(n1)-c1ccc(C(=O)OC)cc1OCC2 | < 1000
CC(C)n1ncnc1-c1cc2n(n1)-c1cc(C3CN(CCS(C)(=O)=O)C3)ccc1OCC2 | < 1000
Cc1nc(-c2cn3c(n2)-c2ccc(-c4cncnc4)cc2OCC3)n(C(C)C)n1 | < 1000
NC(=O)CNc1ccc2c(c1)OCCn1cc(-c3ncnn3CC(F)(F)F)nc1-2 | < 1000
CS(=O)(=O)CCNC(=O)c1ccc2c(c1)OCCn1cc(-c3ncnn3-c3ccccc3Cl)nc1-2 | < 1000
